Measurements from US10280159B2 (AbbVie Deutschland GmbH & Co. KG, priority 2015, dated 2019).
Structures can show the parent of a compound that is named as a salt.

How the values were obtained:
Format in all cases: cell-based
[1] = target: T1, human S1PR1 (Homo sapiens, UniProt P21453); experiment: Intracellular Ca2+ release (FLIPR) agonist potency, S1P1; conditions: recombinant CHO-K1 cells expressing human S1PR1, aequorin, Gq/i5; Calcium 5 FLIPR; read-out: S1P1 EC50
T1 construct: host or cells: CHO-K1
T1 sequence (P21453 whole entry): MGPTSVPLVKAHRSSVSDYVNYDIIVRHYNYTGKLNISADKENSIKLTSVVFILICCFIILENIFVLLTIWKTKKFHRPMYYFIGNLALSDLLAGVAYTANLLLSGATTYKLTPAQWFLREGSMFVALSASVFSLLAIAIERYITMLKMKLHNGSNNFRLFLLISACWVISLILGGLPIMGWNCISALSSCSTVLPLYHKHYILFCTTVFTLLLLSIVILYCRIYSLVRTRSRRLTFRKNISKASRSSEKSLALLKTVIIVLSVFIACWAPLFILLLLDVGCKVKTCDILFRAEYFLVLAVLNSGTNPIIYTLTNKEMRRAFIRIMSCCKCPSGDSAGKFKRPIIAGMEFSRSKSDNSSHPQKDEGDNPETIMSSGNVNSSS
In short: (§1)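 CHO-K1/receptor/aequorin/Gq/i5 cells, F-12 Ham + 10% FBS. Ca2+ release read on FLIPR Tetra. EC50 by nonlinear fit after normalizing to phospho-fingolimod reference curve.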

[2] = target: T2, human S1PR4 (Homo sapiens, UniProt O95977); experiment: Intracellular Ca2+ release (FLIPR) agonist potency, S1P4; conditions: recombinant CHO-K1 cells expressing human S1PR4, aequorin, Gq/i5; Calcium 5 FLIPR; read-out: S1P4 EC50
T2 construct: host or cells: CHO-K1
T2 sequence (O95977 1-384): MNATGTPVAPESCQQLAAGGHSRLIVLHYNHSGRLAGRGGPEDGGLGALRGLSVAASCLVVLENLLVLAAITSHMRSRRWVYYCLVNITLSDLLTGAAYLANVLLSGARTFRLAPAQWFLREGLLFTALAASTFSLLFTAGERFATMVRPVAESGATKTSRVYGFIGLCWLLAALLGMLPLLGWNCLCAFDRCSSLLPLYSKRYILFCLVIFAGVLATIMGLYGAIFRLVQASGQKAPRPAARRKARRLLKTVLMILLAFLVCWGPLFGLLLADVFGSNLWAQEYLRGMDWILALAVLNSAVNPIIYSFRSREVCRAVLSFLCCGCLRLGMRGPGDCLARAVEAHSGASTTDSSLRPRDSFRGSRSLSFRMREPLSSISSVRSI
In short: as §1

[3] = target: T3, human S1PR5 (Homo sapiens, UniProt Q9H228); experiment: Intracellular Ca2+ release (FLIPR) agonist potency, S1P5; conditions: recombinant CHO-K1 cells expressing human S1PR5, aequorin, Gq/i5; Calcium 5 FLIPR; read-out: S1P5 EC50 range
T3 construct: host or cells: CHO-K1
T3 sequence (Q9H228 whole entry): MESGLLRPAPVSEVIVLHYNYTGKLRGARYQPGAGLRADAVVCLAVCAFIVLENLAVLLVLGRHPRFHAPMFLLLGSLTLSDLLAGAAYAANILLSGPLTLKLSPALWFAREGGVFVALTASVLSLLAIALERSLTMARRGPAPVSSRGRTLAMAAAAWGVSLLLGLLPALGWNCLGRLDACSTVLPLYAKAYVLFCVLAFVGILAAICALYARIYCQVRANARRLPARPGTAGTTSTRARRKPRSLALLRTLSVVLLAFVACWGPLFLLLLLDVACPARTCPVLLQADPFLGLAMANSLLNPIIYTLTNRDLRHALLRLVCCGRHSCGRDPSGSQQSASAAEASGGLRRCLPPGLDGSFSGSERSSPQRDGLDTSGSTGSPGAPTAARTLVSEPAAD
In short: as §1

O=C(O)C1CN(C2COc3cc(OCCc4ccc(Cl)cc4)ccc3C2)C1 (stereo not drawn) [Compound 228, 1-[7-[2-(4-chlorophenyl)ethoxy]chroman-3-yl]azetidine-3-carboxylic acid]
EC50 [1]: > 1000 nM | EC50 [2]: > 1000 nM | EC50 [3]: 1000 to 10000 nM

Cc1cc(C)cc(COc2ccc3c(c2)CCC(OCC(=O)O)C3)c1 (stereo not drawn) [Compound 156, 2-[6-[(3,5-dimethylphenyl)methoxy]tetralin-2-yl]oxyacetic acid]
EC50 [1]: > 1000 nM | EC50 [2]: > 1000 nM | EC50 [3]: 1000 to 10000 nM

CCc1cccc(Cl)c1COc1ccc2c(c1)OCC(N1CCC(C(=O)O)CC1)C2 (stereo not drawn) [Compound 111, 1-[7-[(2-chloro-6-ethyl-phenyl)methoxy]chroman-3-yl]piperidine-4-carboxylic acid; Salt with 2,2,2-trifluoroacetic acid]
EC50 [1]: < 1000 nM | EC50 [2]: < 1000 nM | EC50 [3]: < 10 nM

Cc1ccccc1COc1ccc2c(c1)CCC(OCCC(=O)O)C2 (stereo not drawn) [Compound 179, 3-[6-(o-tolylmethoxy)tetralin-2-yl]oxypropanoic acid]
EC50 [1]: > 1000 nM | EC50 [2]: > 1000 nM | EC50 [3]: 1000 to 10000 nM

O=C(O)C1CN(C2COc3cc(OCc4cccc(C(F)(F)F)c4F)ccc3C2)C1 (stereo not drawn) [Compound 94, 1-[7-[[2-fluoro-3-(trifluoromethyl)phenyl]methoxy]chroman-3-yl]azetidine-3-carboxylic acid]
EC50 [1]: > 1000 nM | EC50 [2]: > 1000 nM | EC50 [3]: 1000 to 10000 nM

CCc1cccc(Cl)c1COc1ccc2c(c1)OCC(NC1(CC(=O)O)CCC1)C2 (stereo not drawn) [Compound 116, 2-(1-((7-((2-chloro-6-ethylbenzyl)oxy)chroman-3-yl)amino)cyclobutyl)acetic acid]
EC50 [1]: > 1000 nM | EC50 [2]: < 1000 nM | EC50 [3]: < 10 nM

N#Cc1ccc(COc2ccc3c(c2)OCC(N2CC(C(=O)O)C2)C3)c(F)c1 (stereo not drawn) [Compound 89, 1-[7-[(4-cyano-2-fluoro-phenyl)methoxy]chroman-3-yl]azetidine-3-carboxylic acid]
EC50 [1]: > 1000 nM | EC50 [2]: > 1000 nM | EC50 [3]: 1000 to 10000 nM

O=C(O)CCOC1CCc2cc(OCc3ccc(Cl)cc3)ccc2C1 (stereo not drawn) [Compound 191, 3-[6-[(4-chlorophenyl)methoxy]tetralin-2-yl]oxypropanoic acid]
EC50 [1]: > 1000 nM | EC50 [2]: > 1000 nM | EC50 [3]: 1000 to 10000 nM

O=C(O)C1CN(C2COc3cc(OCCOc4ccc(F)cc4)ccc3C2)C1 (stereo not drawn) [Compound 93, 1-[7-[2-(4-fluorophenoxy)ethoxy]chroman-3-yl]azetidine-3-carboxylic acid]
EC50 [1]: > 1000 nM | EC50 [2]: > 1000 nM | EC50 [3]: 1000 to 10000 nM

O=C(O)C1CN(C2COc3cc(OCC4CCC4)ccc3C2)C1 (stereo not drawn) [Compound 230, 1-[7-(cyclobutylmethoxy)chroman-3-yl]azetidine-3-carboxylic acid]
EC50 [1]: > 1000 nM | EC50 [2]: > 1000 nM | EC50 [3]: 1000 to 10000 nM

O=C(O)C1CN(C2COc3cc(OCc4cccc(C(F)(F)F)c4)ccc3C2)C1 (stereo not drawn) [Compound 59, 1-(7-((3-(trifluoromethyl)benzyl)oxy)chroman-3-yl)azetidine-3-carboxylic acid]
EC50 [1]: > 1000 nM | EC50 [2]: < 1000 nM | EC50 [3]: 100 to 1000 nM

O=C(O)COC1CCc2cc(OCc3cc(Cl)ccc3Cl)ccc2C1 (stereo not drawn) [Compound 164, 2-[6-[(2,5-dichlorophenyl)methoxy]tetralin-2-yl]oxyacetic acid]
EC50 [1]: > 1000 nM | EC50 [2]: > 1000 nM | EC50 [3]: 1000 to 10000 nM

COc1ccc(F)c(COc2ccc3c(c2)OCC(N2CC(C(=O)O)C2)C3)c1 (stereo not drawn) [Compound 98, 1-[7-[(2-fluoro-5-methoxy-phenyl)methoxy]chroman-3-yl]azetidine-3-carboxylic acid]
EC50 [1]: > 1000 nM | EC50 [2]: > 1000 nM | EC50 [3]: 1000 to 10000 nM

O=C(O)C1CCN(C2COc3cc(OCc4ccccc4)ccc3C2)CC1 (stereo not drawn) [Compound 112, 1-(7-benzyloxychroman-3-yl)piperidine-4-carboxylic acid]
EC50 [1]: > 1000 nM | EC50 [2]: < 1000 nM | EC50 [3]: 1000 to 10000 nM

O=C(O)CCOC1CCc2cc(OCc3cccc(F)c3)ccc2C1 (stereo not drawn) [Compound 180, 3-[6-[(3-fluorophenyl)methoxy]tetralin-2-yl]oxypropanoic acid]
EC50 [1]: > 1000 nM | EC50 [2]: > 1000 nM | EC50 [3]: 1000 to 10000 nM
